What was measured:
Wnt signal = assay: TOPFlash reporter gene activity test in HEK293T cells; assay type: cell-based
Description: The HEK293T cells used for the measurement of reporter gene activity were plated at 20 hours before transfection and cultured to about 50% coverage for the transfection. The transfection method was as described above. For HEK293T cells, transfection was performed according to 20 ng TOPFlash, 20 ng GFP and 460 ng lacZ per well, and Wnt3a or Nesfatin-1/NUCB2 protein was added at 18 hours after transfection to stimulate for 6-8 hours, and the cell was lysed with Boehringer Mannheim Luciferase Assay Kit (200 μl/well) for 15 minutes, 50 μl lysate was added in the fluorometer BIO-TEK Synergy2 (Gene Company Limited) to measure the GFP fluorescence intensity in the cell lysate as an internal standard, and then 20 μl luciferase substrate (Roche) was added for the reaction, the luciferase activity was detected in the chemiluminescence channel, and finally the GFP reading was used as an internal standard for homogenization.
We focus on the three small molecules HLY72, HLY103, and HSS49A (FIG. 3a). […] So that the first biochemical experiment design is: whether these three small molecules can compete for the binding of HLY179 to NUCB2 protein.

[1] = tested on: obese mice fed with high-fat diet (DIO); assay: Metabolic cage, obese mice fed with high-fat diet (DIO); assay type: in vivo, mouse; settings: 20 mg/kg
Description: (§1) Before starting the metabolic cage experiment, the mice were fed in a single cage for 1 week. After a one-week single cage adaptation period, three days before the start of the small molecule compound injection, the mice were injected with 25 μL of DMSO within 2 hours before turning off the lights every afternoon, allowing them to adapt to the injection for 3 days. After 3 days of injection, the acclimated mice were put into the metabolic cage. Starting from the same day, 25 μL of DMSO and HLY72 (20 mg/kg) were injected within 2 hours before turning off the lights for 3 consecutive days.
Next, the effect of HLY72 on the metabolism of mice is studied. We use two methods: (1) the relevant metabolic indexes of the mice are directly measured using the metabolic cage, and (2) the expression of the relevant key metabolic genes is detected. three metabolic parameters are obtained through the metabolic cage experiment: (1) Energy expenditure (EE), energy output is an important aspect of energy balance, under conditions such as restricted diet and fasting, mice will reduce basic metabolism, reduce energy expenditure; (2) respiratory exchange ratio (RER), based on the ratio calculated by CO2 produced and the use of 02, RER of 1 means that carbohydrates is mainly used as energy, RER of 0.7 means that fat is mainly used as fuel; (3) physical activity (Activity).

[2] = tested on: mice fed with high-fat diet; assay: Paired feeding experiment in metabolic cage; assay type: in vivo, mouse; settings: 20 mg/kg
Description: Mice fed with high-fat diet (8 mice per group) are placed in a metabolic cage for 3 days and injected with 20 mg/kg of HLY72 or DMSO once a day. Half of the mice in the DMSO group are paired with the HLY72 group. The average daily food intake (A), energy dissipation (B), respiratory exchange rate (C), physical activity (D) (E) of the three groups of mice after the three-day metabolic cage experiment is completed, the weight of the three groups of mice.
as §1
Next, the HLY72 injection group and their paired feeding group are compared. The DMSO-injected mice were divided into two groups. The first group was free to get enough food, while the other group was provided the same amount of food as the HLY72 group daily. […] Compared with the DMSO group, the energy expenditure of the HLY72 group and its paired feeding group are decreased day and night. There is no difference in energy expenditure between the HLY72 group and its paired feeding group during the day and night (FIG. 14b).

[3] = tested on: lipid metabolism related genes; assay: Expression of lipid metabolism related genes in tissues (RT-PCR); assay type: in vivo, mouse; settings: 20 mg/kg 3 consecutive days
Description: Mice fed with normal diet are injected with 20 mg/kg of HLY72 for 3 consecutive days, and the white adipose tissue (A) is taken to detect fat storage, fatty acid synthesis and decomposition-related gene expression. Liver (B) is taken to detect fatty acid transport and oxidative gene expression. Muscle (C) is taken to test the fatty acid transport and oxidative gene expression (14 mice per group).
After the mice were euthanized, the corresponding tissues were immediately peeled off and quickly frozen with liquid nitrogen and stored at −80° C. For the cell sample in the 6-well petri dish, after removing the culture medium, 1 mL of Trizol was added and placed at room temperature for 10 minutes, then transferred to a 1.5 mL EP tube and stored at −80° C. When extracting tissue RNA, 1.5 mL of Trizol was added to the tissue homogenization tube containing steel balls, the tissue was removed from the −80° C. refrigerator and put into the homogenization tube to homogenize and crush. RNA was extracted by phenol-chloroform-isopropanol method. Using the Superscript™III first strand synthesis system (Invitrogen) kit, 1 μg of mRNA was reverse transcribed into cDNA, and random primers were used for reverse transcription. Quantitative SYBR green PCR kit (Takara) kit was used for quantitative PCR reaction. The instrument for PCR reaction was ABI-QuantStudio 6 Realtime PCR instrument.
After injection of HLY72 in mice, the epididymal white adipose tissue, liver and muscle tissue were taken to detect the expression of lipid metabolism related genes. […] The expression of fatty acid transporter gene FAT (CD36), FATP2, FATP5 on the liver cell membrane is increased, the expression of the transporter gene CPT1A for fatty acid entering the mitochondria and the key enzyme gene ACADM of fatty acid β-oxidation are increased (FIG. 15b). At the same time, the expression of muscle cell membrane fatty acid transporter genes FATP1 and FATP4 are increased, and the expression of the transporter gene CPT1B for fatty acid entering the mitochondria and the key enzyme gene ACADM of fatty acid β-oxidation are increased (FIG. 15c). Changes in gene expression in these tissues indicate that liver and muscle tissues have increased the use of fatty acids.

Water solubility = assay type: physicochemical

For C=Cc1cccc2c1N(C)Cc1cc3c(cc1-2)OCO3 [HLY72], the “activity of Wnt signal activation” value (Wnt signal) was “none of them have the activity of Wnt signal activation”, the physical activity ([1]; at night) was “significantly reduced” and the energy expenditure ([1]; at night and during the day) was “significantly reduced”. For the same compound, the “respiratory exchange rate compared with the DMSO group” value ([1]; at night and during the day) was “significantly reduced”, the physical activity ([1]; during the day) was “no change” and the “body weight, difference to paired feeding group” value [2] was “no significant difference”. The “physical activity compared with the DMSO group and the paired feeding group” value [2] was “significantly reduced”, the body weight ([2]; after three-day metabolic cage) was “decreased significantly” and the “energy expenditure compared with the DMSO group” value ([2]; day and night) was “decreased”. For the same compound, the “energy expenditure, difference to paired feeding group” value ([2]; day and night) was “no difference”, the “respiratory exchange rates compared with the paired feeding group and the DMSO group” value ([2]; night and day) was “significantly reduced” and the “expression of ACADM” value ([3]; liver) was “increased”. The “expression of CPT1A” value ([3]; liver) was “increased”, the “expression of FAT (CD36)” value ([3]; liver) was “increased” and the “expression of FATP2” value ([3]; liver) was “increased”. The “expression of FATP5” value ([3]; liver) was “increased”, the “expression of ACADM” value ([3]; muscle) was “increased” and the “expression of CPT1B” value ([3]; muscle) was “increased”. The “expression of FATP1” value ([3]; muscle) was “increased”, the “expression of FATP4” value ([3]; muscle) was “increased” and the “expression of ATGL (lipolytic gene)” value ([3]; white adipose tissue) was “increase”. For the same compound, the “expression of DGAT (fat storage gene)” value ([3]; white adipose tissue) was “significantly reduced”, the “expression of FAS (fatty acid synthesis gene)” value ([3]; white adipose tissue) was “significantly down-regulated” and the “expression of SCD1 (fatty acid synthesis gene)” value ([3]; white adipose tissue) was “significantly down-regulated”. For the same compound, the water solubility (Water solubility) was “very poor”.
